Results as given in patent publication US20060134225A1, “Phosphate binder with reduced pill burden” (priority 2004, published 2006).

Tests used:
[1] = test system: adult Sprague-Dawley rats; assay: In vivo study in 5/6 nephrectomized rats, urine phosphorus excretion; parameters: species or system rat; settings: 314 mg elemental lanthanum/kg/day oral, 14 days, compared to untreated rats
Method: Groups of six adult Sprague-Dawley rats underwent ⅚th nephrectomy in two stages over a period of 2 weeks and were then allowed to recover for a further two weeks prior to being randomized for treatment. The groups received vehicle (0.5% w/v carboxymethyl cellulose), or lanthanum oxycarbonate suspended in vehicle, once daily for 14 days by oral […] (10 ml/kg/day). The dose delivered 314 mg elemental lanthanum/kg/day. Dosing was carried out immediately before the dark (feeding) cycle on each day. Urine samples (24 hours) were collected prior to surgery, prior to the commencement of treatment, and twice weekly during the treatment period. Volume and phosphorus concentration were measured.
Feeding—During the acclimatization and surgery period, the animals were given Teklad phosphate sufficient diet (0.5% Ca, 0.3% P; Teklad No. TD85343), ad libitum. At the beginning of the treatment period, animals were pair fed based upon the average food consumption of the vehicle-treated animals the previous week.
5/6 Nephrectomy—After one week of acclimatization, all animals were subjected to 5/6 nephrectomy surgery. The surgery was performed in two stages. First, the two lower branches of the left renal artery were ligated. One week later, a right nephrectomy was performed. […]

[2] = test system: adult beagle dogs; assay: Dog study, urine phosphate excretion; assay type: in vivo; settings: oral capsules, 2250 mg elemental lanthanum twice daily
Method: The doses were administered 30 minutes after provision of food to the animals. At least 14 days washout was allowed between the crossover arms. Plasma was obtained pre-dose and 1.5, 3, 6, 7.5, 9, 12, 24, 36, 48, 60, and 72 hours after dosing and analyzed for lanthanum using ICP-MS. Urine was collected by catheterization before and approximately 24 hours after dosing and creatinine and phosphorus concentrations measured.

Molecule	phosphorus excretion in urine (marker of dietary phosphorus binding) [1]	urine phosphate excretion (marker of phosphorous binding) [2]
lanthanum oxycarbonate	decrease in phosphorus excretion	
O=C([O-])[O-].[La+3].[OH-] [lanthanum carbonate hydroxide]	decrease in phosphorus excretion	
O=C([O-])[O-].[La+3].[OH-] [compound A, LaCO3OH]		reduction of urine phosphate excretion
O=C([O-])[O-].[La+3].[La+3].[O-2].[O-2] [compound B, La2O2CO3]		reduction of urine phosphate excretion
